Literature values, collected in patent US10653683B2, “Tiotropium inhalation solution for nebulization” (GLENMARK SPECIALTY S.A., priority 2016, dated 2020).

What was measured:
[1] = relative to histamine

Row | Solubility in methanol (methanol) | Solubility in water (water) | Molecule | Bronchoconstrictor properties, times less potent than histamine [1] [times]
1 | soluble | sparingly soluble | C[N+]1(C)C2CC(OC(=O)C(O)(c3cccs3)c3cccs3)CC1C1OC12 (stereo not drawn) [Tiotropium bromide monohydrate, (1α, 2ß, 4ß, 5α, 7ß)-7-[(hydroxydi-2-thienylacetyl)oxy]-9,9-dimethyl-3-oxa-9-azoniatricyclo [3.3.1.02, 4] nonane bromide monohydrate] | –
2 | – | – | benzalkonium chloride | 7.4
